The values below come from patent US20050227220A1, “Compositions and Methods for Evaluating and Designing Nuclear Receptor Ligands that Modulate Co-Regulator Affinity” (priority 2002, published 2005).

In experiment [1] the target is T1, PPARα LBD (Homo sapiens, UniProt Q07869).
T1 construct: made in house; host or cells: bacterial BL21-DE3, vector pRSETA
T1 sequence (Q07869 192-468): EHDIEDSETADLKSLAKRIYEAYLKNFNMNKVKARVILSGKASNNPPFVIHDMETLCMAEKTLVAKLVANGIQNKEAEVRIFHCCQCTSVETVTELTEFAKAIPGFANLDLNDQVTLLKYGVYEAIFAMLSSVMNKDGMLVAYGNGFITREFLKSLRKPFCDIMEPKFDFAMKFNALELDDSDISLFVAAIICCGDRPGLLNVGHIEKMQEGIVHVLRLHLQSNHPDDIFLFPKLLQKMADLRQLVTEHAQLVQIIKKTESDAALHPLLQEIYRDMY
In words: FRET assay: ligand effect on CBP fragment / NCoR ID-C binding to PPAR LBD. It counts as biochemical. As to conditions: 10 nM PPAR LBD; for effect on apparent affinity of PPARα for the co-activator fragment from CBP: CBP (57-454). The source says: (§1) The experimentally determined α value is the ratio of cofactor affinities in the presence and absence of a saturating concentration of ligand. This analysis permits a direct comparison of the effects of compounds, independent of cofactor concentration and differences in coregulator affinity for the individual receptors. […] 98(9): p.
(§2) The effects of the coregulator environment on the apparent affinities and selectivities of various ligands were than examined. Experimentally determined pKs and the α values derived from the FRET assay were used to calculate the apparent affinity of the ligand for the receptor/cofactor complex (i.e. K/α).
(§3) FIG. 5 illustrates the effect of ligands on coactivator and corepressor binding to PPAR subtypes determined by FRET.

Experiment [2] concerns the target T2, full length human PPARα (Homo sapiens, UniProt Q07869).
T2 construct: expressed in transfected cells; host or cells: CV-1 cells, vector pVP16 (Clonetech)
T2 sequence (Q07869 1-468): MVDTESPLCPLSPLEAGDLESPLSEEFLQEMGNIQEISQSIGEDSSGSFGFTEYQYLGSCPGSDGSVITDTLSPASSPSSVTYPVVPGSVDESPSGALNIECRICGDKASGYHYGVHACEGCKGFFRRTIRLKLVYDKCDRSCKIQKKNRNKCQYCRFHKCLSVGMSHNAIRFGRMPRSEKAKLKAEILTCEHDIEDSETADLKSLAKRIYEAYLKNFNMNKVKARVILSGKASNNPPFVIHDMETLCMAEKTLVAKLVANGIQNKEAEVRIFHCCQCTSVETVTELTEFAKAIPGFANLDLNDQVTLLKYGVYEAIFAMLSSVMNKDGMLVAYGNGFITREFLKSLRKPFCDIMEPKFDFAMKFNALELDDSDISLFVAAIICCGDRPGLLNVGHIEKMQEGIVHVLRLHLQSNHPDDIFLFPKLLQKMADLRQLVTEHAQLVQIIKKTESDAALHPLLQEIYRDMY
Description: Mammalian two-hybrid assay (CV-1 cells). It counts as cell-based. As to conditions: VP16-PPARα, GAL4-NCoR (2239-2300), result in words. An excerpt: Mammalian two-hybrid assays were used to examine the ability of the tyrosine-based class of PPAR ligands to promote association or dissociation of the co-activator CBP and the corepressor NCoR in the context of a cellular environment. The assays for the three PPAR subtypes used full length human PPARα, PPARγ2 or PPARδ fused to the activation domain of VP16 and previously identified interaction domains of CBP and NCoR fused to the DNA binding domain of GAL4.
Expression plasmids for the VP16-human PPAR constructs were prepared by inserting amplified cDNAs encoding full length PPARα, PPARγ2 and PPARδ fused to amino acids 410-490 of the VP16 viral activation domain, into the expression vector pVP16 (Clonetech). […] The reporter plasmid was (UAS)5-tk-SPAP, and the internal control plasmid for all transfections was β-galactosidase expression vector (pCH110, Amersham).
CV-1 cells were maintained in culture in DME high glucose medium supplemented with 10% FBS and 2 mM glutamine in a humidified incubator (5% CO2 in air) at 37° C. Cells were harvested 72 hours prior to experimental use and placed in phenol red free D-MEM/F-12 medium with 15 mM HEPES supplemented with 10% charcoal/dextran-treated FBS (HyClone, Logan, Utah). The cells were harvested and seeded at 2.0×10^4 cell per well in a 96-well plate the day prior to transfection. Cells were transfected for 16 hr using Lipofectamine (Life Technologies, Inc., Rockville, Md.) essentially according to the manufacturer's instructions. The total amount of DNA transfected into each well was 80 ng. Transfection mixtures contained 8 ng VP16-PPAR plasmid, 8 ng SPAP reporter, 25 ng of pCH110(β-galactosidase) control plasmid, 35 ng of pBluescript II KS+ (Clonetech) and 4 ng of either coactivator or corepressor plasmid. Transfection quantities for full length PPAR and cofactor plasmids were optimized to generate a signal that was half of the maximal activation. These conditions would allow for dissociation or association to be experimentally determined for each ligand evaluated. Stock solutions of drugs were prepated in DMSO and dilutions were made in phenol red-free D-MEM/F-12 with 15 mM HEPES supplemented with 10% charcoal stripped, delipidated, heat inactivated (62° C. for 35 min) bovine calf serum (Sigma, St. Louis, Mo.) such that the final concentration of DMSO was 0.1%. Transfection mixtures were aspirated and 100 μl, of medium containing drug was added to each well.

The target of experiment [3] is T3, PPARδ LBD / RXRα LBD (Homo sapiens, UniProt Q03181).
T3 sequence (Q03181 139-441): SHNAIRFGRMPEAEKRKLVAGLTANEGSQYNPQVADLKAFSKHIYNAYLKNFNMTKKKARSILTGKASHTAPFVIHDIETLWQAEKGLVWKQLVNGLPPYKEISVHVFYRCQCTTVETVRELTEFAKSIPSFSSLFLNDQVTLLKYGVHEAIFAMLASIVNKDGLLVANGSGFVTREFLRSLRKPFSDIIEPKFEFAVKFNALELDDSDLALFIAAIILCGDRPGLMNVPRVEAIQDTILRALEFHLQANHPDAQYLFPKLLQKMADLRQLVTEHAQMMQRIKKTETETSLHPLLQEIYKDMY
T3 sequence (P19793 225-462 partner limits assumed): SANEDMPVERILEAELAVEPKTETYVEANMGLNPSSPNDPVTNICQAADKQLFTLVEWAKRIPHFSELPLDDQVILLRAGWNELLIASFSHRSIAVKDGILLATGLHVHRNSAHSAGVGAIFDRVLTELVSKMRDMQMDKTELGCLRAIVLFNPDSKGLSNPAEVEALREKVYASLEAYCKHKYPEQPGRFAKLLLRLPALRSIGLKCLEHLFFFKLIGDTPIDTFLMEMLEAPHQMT
In words: FRET assay: ligand effect on RXRα LBD binding to PPAR LBD. The note with it: 10 nM PPAR LBD, 4 concentrations of RXR.

Experiment [4] concerns the target T4, PPARδ LBD (Homo sapiens, UniProt Q03181).
T4 construct: made in house; host or cells: bacterial BL21-DE3, vector pRSETA
T4 sequence (Q03181 139-441): T3 sequence (Q03181 139-441)
Description: FRET assay: ligand effect on CBP fragment / NCoR ID-C binding to PPAR LBD. Format: biochemical. As to conditions: 10 nM PPAR LBD, CBP (57-454).
Description: as §1, §2, §3

Experiment [5] has as its target GAL4-CBP (1-115) (UniProt P04386 1-147; P45481 1-115). Description: cell-based or functional assay.

`Cc1cc(SCc2sc(-c3ccc(C(F)(F)F)cc3)nc2C)ccc1OCC(=O)O` [GW1516]: the “effect on apparent affinity of PPARα for the co-activator fragment from CBP” value (“effect on apparent affinity of PPARα” for short) in experiment [1] is recorded as “increased the apparent affinity”. The “effect on affinity of PPARα for the co-repressor peptide” value in experiment [1] (NCoR ID-C) is “decreased the affinity”.

For `CCC(=O)NC[C@H](Cc1ccc(OCCc2nc(-c3ccccc3)oc2C)cc1)N/C(C)=C\C(=O)c1ccc(C(F)(F)F)cc1` [GW6471], the “effect on PPARα interaction with NCoR” value in experiment [2] is recorded as “modulation of co-repressor interaction was seen”. For the molecule `C/C(=C/C(=O)c1ccccc1)N[C@@H](Cc1ccc(OCCc2nc(-c3ccccc3)oc2C)cc1)C(=O)O` [GW9544], the “effect on apparent affinity of PPARα” value in experiment [1] is “increased the apparent affinity”. With `Cc1oc(-c2ccccc2)nc1CCOc1ccc(C[C@H](Nc2ccccc2C(=O)c2ccccc2)C(=O)O)cc1` [GW2570, farglitazar], in experiment [3], the “promotion of association of PPARδ with RXR” value was “most effective”. Further, in experiment [4], the “effect on apparent affinity of PPARδ for the co-activator fragment from CBP” value is reported as “increased the apparent affinity”. In addition, the “effect on apparent affinity of PPARα” value in experiment [1] is on record as “increased the apparent affinity”.

B1: VP16-human PPARδ (full length) (other)
chain: LSTAPPTDVSLGDELHLDGEDVAMAHADALDDFDLDMLGDGDSPGPGFTPHDSAPYGALDMADFEFEQMFTDALGIDEYGGMEQPQEEAPEVREEEEKEEVAEAEGAPELNGGPQHALPSSSYTDLSRSSSPPSLLDQLQMGCDGASCGSLNMECRVCGDKASGFHYGVHACEGCKGFFRRTIRMKLEYEKCERSCKIQKKNRNKCQYCRFQKCLALGMSHNAIRFGRMPEAEKRKLVAGLTANEGSQYNPQVADLKAFSKHIYNAYLKNFNMTKKKARSILTGKASHTAPFVIHDIETLWQAEKGLVWKQLVNGLPPYKEISVHVFYRCQCTTVETVRELTEFAKSIPSFSSLFLNDQVTLLKYGVHEAIFAMLASIVNKDGLLVANGSGFVTREFLRSLRKPFSDIIEPKFEFAVKFNALELDDSDLALFIAAIILCGDRPGLMNVPRVEAIQDTILRALEFHLQANHPDAQYLFPKLLQKMADLRQLVTEHAQMMQRIKKTETETSLHPLLQEIYKDMY
In the case of B1, the “mammalian two-hybrid reporter, fold association with GW1929 and GW7845” value in experiment [5] is approximately 2 fold.
